Results: article PMC8071435, “Amorphous Solid Dispersion Tablets Overcome Acalabrutinib pH Effect in Dogs” (Pharmaceutics, 2021)
Like-named read-outs stand apart in the source and are kept apart here. Marks after values point to notes of the source that are not given here.

Legend:
[1] = parameters: method as in PMID 31306750; conditions: cited from earlier work
[2] = parameters: method as in PMID 31306750; conditions: cited from earlier work; remark: listed apart in the source
CYP3A4 = system: CYP3A4; parameters: method as in PMID 31306750; conditions: humans; cited from earlier work
[3] = parameters: method as in PMID 31306750; conditions: humans; cited from earlier work
[4] = Chemical stability: total impurities (total related substances) by RP-HPLC after storage; type: physicochemical; conditions: 40 °C/75% RH/open, perforated seal
Description: The ASD was stored at 40 °C/75% relative humidity (RH) to assess physical and chemical stability under accelerated storage conditions. Initial ASD samples and aged ASDs were analyzed for crystallinity using PXRD, thermal properties using mDSC, changes in morphology or presence of surface crystals using SEM, and chemical degradation by reverse-phase high-performance liquid chromatography (RP-HPLC). The ASD and ASD tablets were stored at ambient and refrigerated conditions to assess the chemical stability at nonaccelerated conditions. Initial and aged ASD samples were analyzed for total related substances using RP-HPLC. See Appendix A.3 for method details.
ASD and ASD tablet samples were analyzed for total related substances using RP-HPLC using a Waters XBridge C8 (150 × 3 mm, 3.5 µm pores) column (Waters Corporation, Milford, MO, USA) at a temperature of 40 °C. Mobile phase was pumped into the column at a flow rate of 0.7 mL/min using a gradient method. 10 mM ammonium acetate was used as mobile phase A and methanol was used as mobile phase B supplied according to the following sequence: 0 min: 20% B, 30 min: 70% B, 40 min: 70% B, 41 min: 20% B, […]. Samples were diluted with 8/2 (v/v) methanol/water and injection volume was 5 µL. The sample tray was held at uncontrolled room temperature. Analysis wavelength was 230 nm and 4 nm bandwidth.
The ASD was stored at 40 °C/75% relative humidity (RH) to assess physical and chemical stability when stored under accelerated conditions. Approximately 100 mg of ASD was placed in a single 4 mL glass vial, with enough glass vials prepared for each storage condition, timepoint and replicate. […] Initial ASD samples and aged ASDs were analyzed for crystallinity using SEM and PXRD, thermal properties using mDSC (in triplicate) and total related substances using RP-HPLC (duplicate analysis).
Additional ASD samples were stored at ambient and refrigerated conditions to assess the chemical stability upon storage at nonaccelerated conditions. […] Initial and aged ASD samples were analyzed for total related substances using RP-HPLC (duplicate analysis). […]

[5] = parameters: method as in PMID 31306750; conditions: cited from earlier work; remark: listed apart in the source

- Total impurities after 4 wk ([4]; 4 wk): 0.70 ± 0.04 area%
- Total impurities after 12 wk ([4]; 12 wk): 0.94 ± 0.05 area%
- Total impurities, initial ([4]; initial (different ASD batch)): 0.59 ± 0.00 area%
Compound: CC#CC(=O)N1CCC[C@H]1c1nc(-c2ccc(C(=O)Nc3ccccn3)cc2)c2c(N)nccn12 [acalabrutinib]
- pKas in physiological range ([1]; higher basic pKa): 5.8
- pKas in physiological range ([1]; lower basic pKa): 3.5
- Crystalline intrinsic solubility [2]: 48 ^a µg/mL
- Fraction metabolized by CYP3A4 in the gut (CYP3A4): approximately 50%
- Fraction metabolized by first-pass liver extraction [3]: 50%
- log P [5]: 2.0 ^a
